# According to patent US8222242B2, “Nitric oxide releasing compounds” (The Regents of the University of California, priority 2008, dated 2012):
# How the values were obtained:
# [1] = system: CS-54 rat vascular smooth muscle cells; details: added to CS-54 cells
# Experimental: CS-54 rat vascular smooth muscle cells were treated with the indicated concentrations of NO-Cbi for 1 hour (A), or 10 μM NO-Cbi for the indicated times (B and C). […] (C) Cell extracts were clarified by centrifugation, and nitrite and nitrate in the extracts were measured by an enhanced Griess reagent method. In A and B, “Con” refers to control, which was cells treated with water. As indicated, the effects of 30 μM cobinamide (Cbi) and 100 μM 8-CPT-cGMP (cGMP) are shown for comparison. In A and B, similar results were obtained in two other experiments.
# Nitrite and nitrate were measured in CS-54 cell extracts and fly extracts using a kit from Active Motif based on an enhanced Griess reagent, as described previously (Broderick K E et al. (2006) FASEB J. 20:1865-73).
# [2] = system: Malpighian tubules isolated from D. melanogaster; assay: Malpighian tubule fluid secretion; design: species or system Drosophila melanogaster; details: 1 mM cobinamide or Cbi(II), 5 mM ascorbic acid, half-strength Schneider's medium
# Experimental: Malpighian tubules are the osmoregulatory organs of D. melanogaster, corresponding to vertebrate kidneys. Tubular fluid secretion is stimulated by NO and cGMP, and fluid secretion rates were measured as described previously (Broderick K E et al. (2005) J. Biol. Chem. 280:8678-85). Briefly, the Malpighian tubule pair of a fly was resected and suspended in mineral oil. […]
# Malpighian tubules are an excellent model for studying the effects of a drug on an intact organ system (Broderick K E et al. (2003) Am. J. Physiol. Cell Physiol. 285:C1207-18). […] Deta-NONOate may not be affected as much by cysteine in the medium, because it has a slower NO release rate and the intact drug can be transported intracellularly before much NO is released.
# [3] = system: vasodilator-stimulated phosphoprotein (VASP) phosphorylated on Ser239 in CS-54 rat vascular smooth muscle cells; assay: VASP phosphorylation in CS-54 cells (immunoblot); type: cell-based; details: added to CS-54 cells; 30 μM cobinamide shown
# Experimental: CS-54 rat vascular smooth muscle cells were treated with the indicated concentrations of NO-Cbi for 1 hour (A), or 10 μM NO-Cbi for the indicated times (B and C). […] In A and B, “Con” refers to control, which was cells treated with water. As indicated, the effects of 30 μM cobinamide (Cbi) and 100 μM 8-CPT-cGMP (cGMP) are shown for comparison. In A and B, similar results were obtained in two other experiments.
# Briefly, cells treated with an NO-releasing agent were extracted rapidly in a sodium dodecyl sulfate (SDS) containing sample buffer, and the cell extracts were subjected to SDS-polyacrylamide gel electrophoresis. Phospho-VASP was assessed by immunoblotting using an antibody specific for VASP phosphorylated on Ser259 (Smolenski A et al. (1998) J. Biol. Chem. 273:20029-35).
# To determine if NO released from NO-Cbi can have a physiologic effect in cultured cells, vasodilator-stimulated phosphoprotein (VASP) phosphorylation was assessed in CS-54 cells.
# mice = type: in vivo, mouse; details: for effect on blood pressure (controls) / effect on heart rate (controls): intraperitoneally, 8 mM Cbi(II) shown
# Experimental: Mice were anesthetized with 1.5% isoflurane gas, and after achieving a stable blood pressure and pulse (about 10 minutes), they were injected intraperitoneally with 100 μl of […] 8 mM Cbi(II) (open circles, solid line), 8 mM NO-Cbi (filled circles, dashed line), or 8 mM nitroglycerin (squares, dotted lines) (panels a and b). Control refers to anesthetized mice who received 100 μl water (triangles, solid line). In panel C, 100 μl of 6 mM NO-Cbi was injected at 0, 32, and 64 minutes as indicated by the arrows. Systolic and diastolic blood pressures, and pulse rate, were measured at the indicated times on the tail artery using a non-invasive tail cuff. The percent change in mean arterial pressure (A and C), and pulse rate (B and C) are shown. For panels A and B, data are the mean±SD of results from five mice for NO-Cbi studied on separate days, and four mice for the other conditions. […] Data in panel C are the mean±SD of results from three mice studied on different days.
# Pulse, and systolic and diastolic blood pressures, were measured non-invasively in the tail artery of mice by restraining mice on a warming platform maintained at ˜38° C. The base of the tail was placed in a computer-controlled pneumatic cuff, and the distal tail was placed in a sensor assembly consisting of a light emitting diode and a photodiode detector. Baseline measurements were made with the mice awake in a dark chamber. The mice were then anesthetized with 3% isoflurane in an induction chamber, and returned to the platform where they received 1.5% isoflurane with 2 liter per minute of oxygen via a nose cone; the isoflurane caused a small, but stable, drop in blood pressure. Drugs in a volume of 100 ul were injected intraperitoneally into the mice, and pulse and blood pressure were measured every 5-15 minute, taking five readings at each time point.
# To determine the effect of NO release from NO-Cbi in an intact mammal, blood pressure and pulse of mice injected intraperitoneally with NO-Cbi were measured.
# [4] = cited from earlier work
# isolated mouse hearts = assay: Coronary flow in isolated perfused mouse hearts (Langendorff)
# Experimental: Hearts and aortas were removed from NIH Swiss mice anesthetized with sodium nembutal, and coronary flow was measured in the hearts using a Langendorff preparation (FIG. 5a) and relaxation of aortic rings was measured after inducing constriction of the rings with prostaglandin F2α (FIG. 5b). The hearts and aortic rings were treated with a range of concentrations of NO-Cbi (filled circles), nitroglycerin (open circles, dotted line, FIG. 5a), and sodium nitroprusside (open circles, FIG. 5b). Coronary flow was measured on the same hearts for both NO-Cbi and nitroglycerin after an appropriate wash-out period between drugs, and aortic ring relaxation was measured on two rings from the same aorta for NO-Cbi and sodium nitroprusside. The data are the mean of two independent experiments performed on two separate hearts in each experiment (FIG. 5a), and the mean±SEM of two independent experiments performed on three separate aortic rings in each experiment (FIG. 5b).
# Coronary flow was measured in isolated perfused mouse hearts in a Langendorff system, and was 10.8±0.5 ml/min/g wet weight (n=7 hearts) under basal conditions. […] The latter value is similar to maximal coronary flow of 24.6±1.8 ml/min/g wet weight obtained with 62 μM adenosine. For nitroglycerin to increase coronary flow to that of NO-Cbi, the nitroglycerin concentration had to be increased to 770 μM, or about 100-fold greater than the NO-Cbi concentration (FIG. 5a).
# D. melanogaster = assay: Viability of injected D. melanogaster; details: 1 μl injected; 1 mM (ascorbic acid 5 mM); observed 48 h
# Experimental: (A) Tubular secretion rates of Malpighian tubules isolated from D. melanogaster were measured, using half-strength Schneider's medium. Basal tubular secretion was measured at 0, 10, and 20 minutes; at 20 minutes (depicted by the arrow) 1 mM cobinamide (Cbi, open circles), 1 mM NO-Cbi (filled circles), 0.5 mM Deta-NONOate (diamonds), or 100 μM 8-CPT-cGMP (inverted triangles) were added. Results are the mean±S.D. of three independent experiments performed on Malpighian tubule pairs from 10 flies. […] (B). Flies were injected with 1 μl of 1 mM cobinamide (Cbi, open circles), 1 mM NO-Cbi (filled circles), 0.5 mM Deta-NONOate (diamonds), or 1 mM spermine NONOate (squares). […] The data are plotted as a Kaplan-Meier survival curve, and are the mean±SD of three experiments, with 10 flies per condition per experiment. […] (C). Flies were injected with 1 μl of water (control, open bar), 1 mM cobinamide (Cbi, grey bar), or 1 mM NO-Cbi (black bars). Flies were killed and extracts were prepared at 3 hours for the water- and cobinamide-injected flies, and at the indicated times for the NO-Cbi-injected flies. Nitrite and nitrate in the extracts were measured using an enhanced Griess reagent.
# The fluid volume of a fly is […], and thus, the injected agent was diluted about 10-fold. […]
# rabbits = assay: Rabbits with phenylephrine-induced hypertension; type: in vivo, rabbit; details: phenylephrine 5 to 20 μg/kg/min continuous intravenous infusion
# Experimental: Phenylephrine was given by continuous intravenous infusion to an anesthetized rabbit at increasing rates from 5 to 20 μg/kg/min; the rabbit remained on the highest phenylephrine infusion rate until the end of the experiment (darker arrows with “A”-shaped arrowheads indicate start times of each increasing dose). At 49 minutes, an infusion of NO-Cbi was started at a rate of 3 μg/kg/min (2.9 nmol/kg/min), with the infusion rate doubled at 58 minutes (lighter arrows with triangular-shaped arrowheads indicate start times of infusions). Systolic and diastolic blood pressure recordings from an intra-arterial catheter are shown. Changes in total hemoglobin, oxyhemoglobin, and deoxyhemoglobin concentrations were measured by continuous wave near-infrared spectroscopy over the left thigh muscle. Phenylephrine caused a progressive decrease in total hemoglobin and oxyhemoglobin concentrations, which reversed within seconds of starting the NO-Cbi infusion.
# Decreased tissue oxygenation as occurred in the experiments shown in FIGS. 7 and 8 would clearly be an undesirable effect of treating hypertensive patients with NO-Cbi. However, lowering blood pressure of a hypertensive patient is very different from lowering blood pressure of a normotensive subject, and the experiments described in Example 15 rabbits with normal or low (due to anesthesia) blood pressure. To simulate a hypertensive state, the blood pressure of rabbits was raised using a continuous intravenous infusion of phenylephrine, a peripheral vasoconstrictor (FIG. 9). As the rabbit's blood pressure increased above normal, tissue perfusion and oxygenation decreased, as evidenced by a decrease in total hemoglobin and oxyhemoglobin concentrations in muscle.
# Thus, in an animal with drug-induced hypertension, NO-Cbi improved tissue perfusion and oxygenation as it lowered blood pressure.
Compound,effect on nitrite/nitrate levels (controls) [1],effect on VASP phosphorylation (controls) [3],effect on blood pressure (controls) (mice),effect on heart rate (controls) (mice),other results
"C/C1=C2/[N-][C@H]([C@H](CC(N)=O)[C@@]2(C)CCC(=O)NC[C@@H](C)O)[C@]2(C)N=C(/C(C)=C3N=C(/C=C4N=C1[C@@H](CCC(N)=O)C\4(C)C)[C@@H](CCC(N)=O)[C@]\3(C)CC(N)=O)[C@@H](CCC(N)=O)[C@]2(C)CC(N)=O.[Co] [Cbi(II), reference compound]","Neither cobinamide, Cbi(II), or ascorbate had any effect","Neither cobinamide, Cbi(II), or ascorbate had any effect",no significant effect,no significant effect,effect on tubular secretion (controls) [2]: Neither cobinamide nor Cbi(II) significantly affected tubular secretion
NCCN(CCN)/[N+]([O-])=N/O [Deta-NONOate],–,–,–,–,half-life [4]: ~50 h
Nc1ncnc2c1ncn2[C@@H]1O[C@H](CO)[C@@H](O)[C@H]1O [adenosine],–,–,–,–,maximal coronary flow (isolated mouse hearts; 62 μM): 24.6±1.8 ml/min/g wet weight
"O=C1O[C@H]([C@@H](O)CO)C(O)=C1O [ascorbate, ascorbic acid, reference compound]","Neither cobinamide, Cbi(II), or ascorbate had any effect","Neither cobinamide, Cbi(II), or ascorbate had any effect",no significant effect,no significant effect,–
"C/C1=C2/[N-][C@H]([C@H](CC(N)=O)[C@@]2(C)CCC(=O)NC[C@@H](C)O)[C@]2(C)N=C(/C(C)=C3N=C(/C=C4N=C1[C@@H](CCC(N)=O)C\4(C)C)[C@@H](CCC(N)=O)[C@]\3(C)CC(N)=O)[C@@H](CCC(N)=O)[C@]2(C)CC(N)=O.[Co+3] [cobinamide, reference compound]","Neither cobinamide, Cbi(II), or ascorbate had any effect","Neither cobinamide, Cbi(II), or ascorbate had any effect",no significant effect,no significant effect,fly killing / toxicity to flies (D. melanogaster): not toxic to flies; effect on tubular secretion (controls) [2]: Neither cobinamide nor Cbi(II) significantly affected tubular secretion
O=[N+]([O-])OCC(CO[N+](=O)[O-])O[N+](=O)[O-] [nitroglycerin],–,–,–,–,"concentration relative to the NO-Cbi concentration for equal coronary flow (isolated mouse hearts): about 100 fold; coronary flow (isolated mouse hearts; 12.0 μM infused): 15.3±1.0 ml/min/g wet weight; increase of coronary flow (isolated mouse hearts; 12.0 μM infused): 34%; concentration needed to increase coronary flow to that of NO-Cbi (isolated mouse hearts; versus 7 μM NO-Cbi): 770 µM; systolic and diastolic blood pressure (mice; 0.8 μmol (100 μl of 8 mM) intraperitoneally, anesthetized mice): late decrease in blood pressure"
"CNC[C@H](O)c1cccc(O)c1 [phenylephrine, reference compound]",–,–,–,–,systolic and diastolic blood pressure (rabbits): increased the systolic and diastolic blood pressure; total hemoglobin and oxyhemoglobin in muscle (rabbits): decreased total hemoglobin and oxyhemoglobin in the muscle
